Measurements from ChEMBL document CHEMBL5370672, “Discovery of Orally Bioavailable Phthalazinone Analogues as an ENPP1 Inhibitor for STING-Mediated Cancer Immunotherapy” (J Med Chem, 2023).
pIC50: −log10 of the molar value. The source made the active and inactive calls. The calls are words filed in the database; no cut-off is given here.

Tests used:
[1] = molecular target: T1, Ectonucleotide pyrophosphatase/phosphodiesterase family member 1 (Homo sapiens, UniProt P22413); test: Inhibition of recombinant human ENPP1 using cGAMP as substrate assessed as inhibition of cGAMP hydrolysis preincubated for 5 to 10 mins followed by substrate addition and measured after 90 mins by AMP-Glo reagent based luminescence plate reader analysis
T1 sequence (P22413 whole entry): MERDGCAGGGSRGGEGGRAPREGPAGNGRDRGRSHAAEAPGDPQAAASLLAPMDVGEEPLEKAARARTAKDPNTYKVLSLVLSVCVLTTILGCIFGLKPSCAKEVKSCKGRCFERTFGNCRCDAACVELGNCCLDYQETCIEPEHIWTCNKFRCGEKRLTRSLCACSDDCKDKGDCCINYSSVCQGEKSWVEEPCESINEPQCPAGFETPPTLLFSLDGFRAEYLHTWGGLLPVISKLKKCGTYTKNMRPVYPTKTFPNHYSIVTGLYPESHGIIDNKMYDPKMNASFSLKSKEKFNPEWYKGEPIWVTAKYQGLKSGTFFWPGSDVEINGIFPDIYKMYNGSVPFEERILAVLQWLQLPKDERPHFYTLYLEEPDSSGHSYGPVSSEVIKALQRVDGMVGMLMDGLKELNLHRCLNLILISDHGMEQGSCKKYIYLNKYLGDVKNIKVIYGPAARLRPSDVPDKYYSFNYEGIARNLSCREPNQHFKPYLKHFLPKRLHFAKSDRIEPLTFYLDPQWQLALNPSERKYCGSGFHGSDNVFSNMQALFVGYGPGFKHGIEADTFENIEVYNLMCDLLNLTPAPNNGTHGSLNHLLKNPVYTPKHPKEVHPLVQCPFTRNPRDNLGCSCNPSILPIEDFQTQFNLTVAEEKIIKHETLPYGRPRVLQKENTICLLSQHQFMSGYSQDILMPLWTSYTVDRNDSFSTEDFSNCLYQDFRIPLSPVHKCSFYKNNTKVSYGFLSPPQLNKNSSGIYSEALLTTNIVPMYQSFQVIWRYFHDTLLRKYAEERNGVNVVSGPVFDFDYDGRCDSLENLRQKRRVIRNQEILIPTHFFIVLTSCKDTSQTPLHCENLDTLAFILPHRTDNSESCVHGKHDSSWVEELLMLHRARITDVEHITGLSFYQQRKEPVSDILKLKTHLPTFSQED

[2] = AUC (0 to t) in BALB/c mouse at 20 mg/kg, po measured after 24 hrs by LC-MS/MS analysis; type: ADME, organism-based; parameters: time 24 hrs, dose 20 mg/kg, route po; settings: in vivo
[3] = AUC (0 to infinity) in BALB/c mouse at 20 mg/kg, po measured after 24 hrs by LC-MS/MS analysis; type: ADME, organism-based; parameters: time 24 hrs, dose 20 mg/kg, route po; settings: in vivo
[4] = Oral bioavailability in BALB/c mouse at 20 mg/kg measured after 24 hrs by LC-MS/MS analysis; type: ADME, organism-based; settings: in vivo
[5] = Protein binding in mouse plasma assessed as unbound fraction by equilibrium dialysis based LC-MS/MS analysis; type: ADME, cell-free
[6] = Metabolic stability in human liver microsome assessed as half-life by LC/MS analysis; type: ADME; settings: liver microsomes
[7] = Metabolic stability in mouse liver microsome assessed as intrinsic clearance by LC/MS analysis; type: ADME; settings: liver microsomes, read-out: CLH
Cytochrome P450 2D6 = Cytochrome P450 2D6 (Homo sapiens, UniProt P10635); test: Inhibition of CYP2D6 in human liver microsomes; type: ADME, Microsome
[8] = molecular target: Stimulator of interferon genes protein (Homo sapiens) (UniProt Q86WV6); test: (§1) Activation of STING-mediated immune response in human HCT-116 cells transfected with ISRE reporter assessed as increase in cGAMP-induced ISRE activation at 25 to 100 uM preincubated with compound for 1 hrs followed by cGAMP addition and measured after 48 hrs by luciferase reporter gene assay; type: cell-based; settings: filed as activator, dose 25-100 µM, time 49.0 hrs
HCT-116 = test: Cytotoxicity against human HCT-116 cells assessed as reduction in cell viability upto 200 uM incubated for 48 hrs in the presence of cGAMP by celltiter 96 aqueous one solution cell proliferation assay; type: functional, cell-based
[9] = molecular target: Stimulator of interferon genes protein (Homo sapiens) (UniProt Q86WV6); test: as §1, with “THP-1” for “HCT-116”, “activation by measuring fold change” for “activation”, “50” for “100”, “24” for “48”; type: cell-based; settings: filed as activator, dose 25-50 µM, time 25.0 hrs
CT26 = test: Antitumor activity against mouse CT26 cells implanted in BALB/c mouse assessed as tumor growth inhibition at 200 mg/kg, po administered for 2 weeks and measured on day 15 in the presence of anti-PD-L1 antibody relative to control; type: functional; settings: CT26, 360 h, time 15 day, read-out: TGI
[10] = Toxicity in BALB/c mouse implanted with mouse CT26 cells assessed as effect on body weight at 200 mg/kg, po preadministered with compound for 2 weeks followed by reinoculation of CT26 cells and measured on day 19; type: organism-based; settings: in vivo, 456 h, time 19 day

Sequence of Stimulator of interferon genes protein (Homo sapiens) (Q86WV6 whole entry): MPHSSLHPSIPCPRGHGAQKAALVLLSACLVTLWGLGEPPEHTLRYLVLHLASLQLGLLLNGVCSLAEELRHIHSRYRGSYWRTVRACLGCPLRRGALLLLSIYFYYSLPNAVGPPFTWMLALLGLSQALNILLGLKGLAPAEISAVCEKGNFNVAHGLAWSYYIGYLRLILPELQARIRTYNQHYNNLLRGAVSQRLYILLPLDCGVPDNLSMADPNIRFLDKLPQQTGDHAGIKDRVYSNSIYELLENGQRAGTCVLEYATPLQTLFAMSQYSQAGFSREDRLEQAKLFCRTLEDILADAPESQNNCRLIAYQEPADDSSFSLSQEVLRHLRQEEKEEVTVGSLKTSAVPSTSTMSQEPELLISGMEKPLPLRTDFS
Sequence of Cytochrome P450 2D6 (P10635 whole entry): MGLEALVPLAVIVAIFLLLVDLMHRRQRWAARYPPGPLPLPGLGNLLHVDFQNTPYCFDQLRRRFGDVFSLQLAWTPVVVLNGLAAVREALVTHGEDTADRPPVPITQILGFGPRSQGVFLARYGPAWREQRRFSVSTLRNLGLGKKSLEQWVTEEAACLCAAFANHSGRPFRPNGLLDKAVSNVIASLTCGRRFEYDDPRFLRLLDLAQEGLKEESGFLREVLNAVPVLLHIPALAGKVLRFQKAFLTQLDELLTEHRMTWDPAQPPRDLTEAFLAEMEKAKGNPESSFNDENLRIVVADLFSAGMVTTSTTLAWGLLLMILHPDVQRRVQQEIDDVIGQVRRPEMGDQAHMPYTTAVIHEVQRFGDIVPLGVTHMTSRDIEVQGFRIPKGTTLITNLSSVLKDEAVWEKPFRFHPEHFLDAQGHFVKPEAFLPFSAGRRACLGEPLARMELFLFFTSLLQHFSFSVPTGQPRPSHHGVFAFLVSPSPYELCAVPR

Question: With `Cn1nc(Cc2ccc(NS(N)(=O)=O)cc2)c2ccccc2c1=O` as the compound, how does the pIC50 [1] read?
Answer: The pIC50 was 7.17.

Question: And the AUC(0-t) at 24 h [2]?
Answer: Its AUC(0-t) at 24 h is 79400 ng·h/mL.

Question: And the AUC(0-inf) [3]?
Answer: The AUC(0-inf) was 79600 ng·h/mL.

Question: What about the bioavailability [4] of the same compound?
Answer: The bioavailability was 65.4%.

Question: What about the fraction unbound [5] of the same compound?
Answer: The fraction unbound was 0.09.

Question: And the half-life [6]?
Answer: The half-life was > 2 h.

Question: What about the CLint scaled [7] of the same compound?
Answer: Its CLint scaled is 92.1 mL/min/kg.

Question: And the pIC50 (Cytochrome P450 2D6)?
Answer: Its pIC50 is < 5.00.

Question: And the Activity [8]?
Answer: The Activity was “Active”.

Question: What about the Activity (HCT-116) of the same compound?
Answer: Its Activity is “Not toxic”.

Question: What about the fold change (FC) [9] of the same compound?
Answer: Its fold change (FC) is < 30.

Question: And the inhibition in vivo at 200 mg/kg (CT26)?
Answer: Its inhibition in vivo at 200 mg/kg is 69%.

Question: What about the Activity [10] of the same compound?
Answer: Its Activity is “Non-Toxic”.
